By IC50 is commonly meant the concentration needed to halve the response being measured.

Experimental findings from PMC7714403 (JCI Insight, 2020) are described below.

The subject of test [1] is MOLM13 cells. Description: MOLM13 viability ± cytokines (MTT). Particulars: Homo sapiens.
Test [2] relates to Ba/F3 cells expressing FLT3 ITD/D835H. In words: MTT viability assay. Particulars: Mus musculus, BaF3; Ba/F3 FLT3 ITD/D835H; MTT, 72 hours; read-out: IC50 viability. It is filed as cell-based. The procedure: (§1) Drug treatments were carried out for 72 hours. Details are provided in the Supplemental Methods.
(Formazan colour is commonly taken as a measure of viable cells.)

Test [3] concerns Ba/F3 cells expressing FLT3 ITD/D835Y. In words: MTT viability assay. In kind it is cell-based. Particulars: Mus musculus, BaF3; Ba/F3 FLT3 ITD/D835Y; MTT, 72 hours; read-out: IC50 viability. As to the method: as §1
Test [4] concerns MOLM13 cells. Description: MTT viability assay. Particulars: Homo sapiens, MOLM-13; MOLM13, FLT3-ITD; MTT, 72 hours; read-out: IC50 viability. It is filed as cell-based. The procedure:
as §1

For a further test, the system named is Ba/F3 cells GFP+IL3. In words: MTT viability assay. In kind it is cell-based. To be noted: Mus musculus, BaF3; Ba/F3 GFP+IL3; MTT, 72 hours; read-out: IC50 viability. The procedure:
as §1

Test [5] concerns Ba/F3 cells expressing FLT3-ITD/F691L. In words: MTT viability assay. To be noted: Mus musculus, BaF3, 72 hours. In kind it is cell-based. As to the method: as §1
In test [6] the test system is Ba/F3 cells expressing FLT3-ITD. In words: MTT viability assay. It is filed as cell-based. Particulars: Mus musculus, BaF3; Ba/F3 FLT3 ITD; MTT, 72 hours; read-out: IC50 viability. The procedure:
as §1

Another test concerns MOLM13-RES cells. Description: MTT viability assay. In kind it is cell-based. To be noted: Homo sapiens; MOLM13-RES, FLT3-ITD/D835Y; MTT, 72 hours; read-out: IC50 viability. As to the method:
as §1

For test [7], the system named is Ba/F3 cells expressing FLT3 D835H. In words: MTT viability assay. It is filed as cell-based. Particulars: Mus musculus, BaF3; Ba/F3 FLT3 D835H; MTT, 72 hours; read-out: IC50 viability. As to the method: as §1
Test [8] deals with Ba/F3 cells expressing FLT3 D835Y. Description: MTT viability assay. To be noted: Mus musculus, BaF3; Ba/F3 FLT3 D835Y; MTT, 72 hours; read-out: IC50 viability. In kind it is cell-based. The procedure: as §1
Another test has as its system MV4-11 cells. In words: MTT viability assay. It is filed as cell-based. To be noted: Homo sapiens; MV4-11, FLT3-ITD; MTT, 72 hours; read-out: IC50 viability. The procedure:
as §1

Test [9] concerns MOLM13 and MOLM13 NRAS G12D cells. In words: Cell growth of inducible MOLM13 NRAS G12D cells. In kind it is cell-based, human. Particulars: 15 nM, doxycycline induction. The procedure: with DAPI in 0.1% Triton-X (ThermoFisher Scientific) PBS for 30 minutes at room temperature and protected from light. The DNA content was determined using a BD LSR II flow cytometer. The cell cycle distribution was […]
Cells that grow out of the CFU assays were washed with PBS twice to remove MethoCult. 100,000 cells were spun down on the slides using cytology funnels (Fisherbrand) in a cytocentrifuge at 600 rpm for 5 minutes.
Slides were then air dried overnight and stained with Hema 3 Stain Set (Thermo Fisher) according to manufacturer’s instructions. Images of the slides were taken at the Campus Microscopy & Imaging Facility Shared Resources here at OSUCCC using the light microscopy Zeiss Axioskop system.
Inducible MOLM13 NRAS G12D Cells
NRAS cDNA was cloned into pLVX -TetOne-Puro vector (Takara Bio USA). Site -directed mutagenesis to generate G12D mutation was carried out using the QuikChange II XL Site-Directed Mutagenesis Kit (Aligent) .
Mutagenesis primers were designed using the QuikChange Primer Design program and synthesized by Integrated DNA Technologies (IDT). Lentiviral production was carried out using the Lenti-X Packaging Single Shots (Takara Bio USA) according to manufactures protocol. Viral supernatant was then concentrated using PEG-it virus precipitation solution (System Biosciences). […]
Cells were counted every 2-3 days via Trypan […]

Test [10] relates to primary FLT3-ITD/IDH2-R140Q murine leukemia cells. In words: CFU assay. In kind it is cell-based, mouse. To be noted: for Colony formation: 20 nM and 50 nM. The procedure:
(§2) For human primary CFU assays, cells were cultured in MethoCult H4035 Optimum without EPO (Stemcell Technologies). For mouse primary CFU assays, cells were directly cultured in MethoCult M3231 (Stemcell Technologies) supplemented with 45 ng/mL of murine IL-6 (mIL-6), mIL-3, and mSCF. Both human and mouse primary cells 10,000 cells were plated in duplicate for each drug concentration. For cell line CFU assays, MV4-11 cells were treated with drugs in the presence of 20 ng/mL IL-3, GM-CSF, or FGF2. Cells were plated in MethoCult H4230 (Stemcell Technologies) in duplicates at 250 cells/plate. […] Colonies were identified as clusters containing 40 or more cells. For CFU assays using human primary CD34^+ cells, umbilical cord blood was obtained from the OSU Comprehensive Cancer Center (CCC) Leukemia Tissue Bank Shared Resource, and mononuclear cells were isolated by using density gradient centrifugation. CD34^+ cells were purified using the CD34 UltraPure MicroBead Kit (Miltenyi Biotec) according to the manufacturer’s instructions. CFU assay with CD34^+ cells was performed as described above, and the total number of colonies were counted after 7–10 days.

The test system of test [11] is primary FLT3-ITD/MLL-PTD murine leukemia cells. Description: CFU assay. In kind it is cell-based, mouse. Particulars: 20 nM and 50 nM. As to the method: as §2
Where [12] appears, read: MOLM-13, read-out: IC50 viability, MOLM13 + GM-CSF.
[13] abbreviates: MOLM-13, read-out: IC50 viability, MOLM13 + IL3.
[14] abbreviates: MOLM-13, read-out: IC50 viability, MOLM13 + IL3, IL6, GM-CSF.
Setting [15] is: MOLM-13, read-out: IC50 viability, MOLM13 + IL6.
Where [16] appears, read: MOLM-13, read-out: IC50 viability, MOLM13, no cytokine.

Consider `CCc1nc(C(N)=O)c(Nc2ccc(N3CCC(N4CCN(C)CC4)CC3)c(OC)c2)nc1NC1CCOCC1` [Gilteritinib, gilteritinib], for which the IC50 in the test with MOLM13 cells [1] (setting [12]) came to 0.0148 µM; in the test on MOLM13 cells [1] (setting [13]), 0.0119 µM; in the test on MOLM13 cells [1] (setting [14]), 0.0184 µM; in the test on MOLM13 cells [1] (setting [15]) it was 0.0107 µM; in the test on MOLM13 cells [1] (setting [16]) it was 0.0079 µM; in test [2], 0.02 µM. Moreover, the IC50 in [3] turned out to be 0.055 µM; in the test on MOLM13 cells [4], 0.017 µM; in the test with Ba/F3 cells GFP+IL3 it was 0.972 µM; in test [5] it was 0.193 µM; in test [6], 0.0054 µM; with MOLM13-RES cells, 0.011 µM. The half-inhibitory concentration (IC50) in test [7] is 0.0005 µM; in [8], 0.022 µM; with MV4-11 cells it was 0.008 µM. Besides, the Cell growth result in test [9] was “resistant phenotype”. Further, the Colony formation entry in [10] is recorded as “modest activity”; in test [11] it was “no activity”.

Regarding `CN1CCN(Cc2ccc(Nc3ncc(Cl)c(Nc4ccccc4S(=O)(=O)N(C)C)n3)cc2)CC1` [TP-0903], the IC50 with MOLM13 cells [1] (setting [12]) amounted to 0.0101 µM; with MOLM13 cells [1] (setting [13]) it was 0.0069 µM; in the test on MOLM13 cells [1] (setting [14]), 0.0081 µM; in the test with MOLM13 cells [1] (setting [15]), 0.0094 µM; with MOLM13 cells [1] (setting [16]) it was 0.0074 µM; in test [2] it was 0.016 µM. For the same compound, the 50% inhibitory concentration (IC50) in [3] worked out at 0.02 µM; in the test on MOLM13 cells [4], 0.021 µM; in the test on Ba/F3 cells GFP+IL3, 0.047 µM; in test [5] it was 0.016 µM; in test [6] it was 0.015 µM; with MOLM13-RES cells it was 0.016 µM. In addition, the IC50 in test [7] was 0.016 µM; in test [8] it was 0.022 µM; in the test with MV4-11 cells, 0.017 µM. In addition, the Cell growth entry in test [9] is “complete loss of viable cells”. Also, the Colony formation result in [10] and in test [11] was “inhibited colony formation” throughout. For the same compound, the Colonies in test [10] (50nM, 7 day CFU assay) was 0 colonies.
